{"source": "patent US20240398784A1", "about": "“C-LINKED ISOQUINOLINE AMIDES AS LRRK2 INHIBITORS, PHARMACEUTICAL COMPOSITIONS, AND USES THEREOF” (Merck Sharp & Dohme LLC, priority 2021, published 2024)", "target": "LRRK2 G2019S (Homo sapiens, UniProt Q5S007, G2019S)", "sequence (Q5S007 whole entry G2019S)": "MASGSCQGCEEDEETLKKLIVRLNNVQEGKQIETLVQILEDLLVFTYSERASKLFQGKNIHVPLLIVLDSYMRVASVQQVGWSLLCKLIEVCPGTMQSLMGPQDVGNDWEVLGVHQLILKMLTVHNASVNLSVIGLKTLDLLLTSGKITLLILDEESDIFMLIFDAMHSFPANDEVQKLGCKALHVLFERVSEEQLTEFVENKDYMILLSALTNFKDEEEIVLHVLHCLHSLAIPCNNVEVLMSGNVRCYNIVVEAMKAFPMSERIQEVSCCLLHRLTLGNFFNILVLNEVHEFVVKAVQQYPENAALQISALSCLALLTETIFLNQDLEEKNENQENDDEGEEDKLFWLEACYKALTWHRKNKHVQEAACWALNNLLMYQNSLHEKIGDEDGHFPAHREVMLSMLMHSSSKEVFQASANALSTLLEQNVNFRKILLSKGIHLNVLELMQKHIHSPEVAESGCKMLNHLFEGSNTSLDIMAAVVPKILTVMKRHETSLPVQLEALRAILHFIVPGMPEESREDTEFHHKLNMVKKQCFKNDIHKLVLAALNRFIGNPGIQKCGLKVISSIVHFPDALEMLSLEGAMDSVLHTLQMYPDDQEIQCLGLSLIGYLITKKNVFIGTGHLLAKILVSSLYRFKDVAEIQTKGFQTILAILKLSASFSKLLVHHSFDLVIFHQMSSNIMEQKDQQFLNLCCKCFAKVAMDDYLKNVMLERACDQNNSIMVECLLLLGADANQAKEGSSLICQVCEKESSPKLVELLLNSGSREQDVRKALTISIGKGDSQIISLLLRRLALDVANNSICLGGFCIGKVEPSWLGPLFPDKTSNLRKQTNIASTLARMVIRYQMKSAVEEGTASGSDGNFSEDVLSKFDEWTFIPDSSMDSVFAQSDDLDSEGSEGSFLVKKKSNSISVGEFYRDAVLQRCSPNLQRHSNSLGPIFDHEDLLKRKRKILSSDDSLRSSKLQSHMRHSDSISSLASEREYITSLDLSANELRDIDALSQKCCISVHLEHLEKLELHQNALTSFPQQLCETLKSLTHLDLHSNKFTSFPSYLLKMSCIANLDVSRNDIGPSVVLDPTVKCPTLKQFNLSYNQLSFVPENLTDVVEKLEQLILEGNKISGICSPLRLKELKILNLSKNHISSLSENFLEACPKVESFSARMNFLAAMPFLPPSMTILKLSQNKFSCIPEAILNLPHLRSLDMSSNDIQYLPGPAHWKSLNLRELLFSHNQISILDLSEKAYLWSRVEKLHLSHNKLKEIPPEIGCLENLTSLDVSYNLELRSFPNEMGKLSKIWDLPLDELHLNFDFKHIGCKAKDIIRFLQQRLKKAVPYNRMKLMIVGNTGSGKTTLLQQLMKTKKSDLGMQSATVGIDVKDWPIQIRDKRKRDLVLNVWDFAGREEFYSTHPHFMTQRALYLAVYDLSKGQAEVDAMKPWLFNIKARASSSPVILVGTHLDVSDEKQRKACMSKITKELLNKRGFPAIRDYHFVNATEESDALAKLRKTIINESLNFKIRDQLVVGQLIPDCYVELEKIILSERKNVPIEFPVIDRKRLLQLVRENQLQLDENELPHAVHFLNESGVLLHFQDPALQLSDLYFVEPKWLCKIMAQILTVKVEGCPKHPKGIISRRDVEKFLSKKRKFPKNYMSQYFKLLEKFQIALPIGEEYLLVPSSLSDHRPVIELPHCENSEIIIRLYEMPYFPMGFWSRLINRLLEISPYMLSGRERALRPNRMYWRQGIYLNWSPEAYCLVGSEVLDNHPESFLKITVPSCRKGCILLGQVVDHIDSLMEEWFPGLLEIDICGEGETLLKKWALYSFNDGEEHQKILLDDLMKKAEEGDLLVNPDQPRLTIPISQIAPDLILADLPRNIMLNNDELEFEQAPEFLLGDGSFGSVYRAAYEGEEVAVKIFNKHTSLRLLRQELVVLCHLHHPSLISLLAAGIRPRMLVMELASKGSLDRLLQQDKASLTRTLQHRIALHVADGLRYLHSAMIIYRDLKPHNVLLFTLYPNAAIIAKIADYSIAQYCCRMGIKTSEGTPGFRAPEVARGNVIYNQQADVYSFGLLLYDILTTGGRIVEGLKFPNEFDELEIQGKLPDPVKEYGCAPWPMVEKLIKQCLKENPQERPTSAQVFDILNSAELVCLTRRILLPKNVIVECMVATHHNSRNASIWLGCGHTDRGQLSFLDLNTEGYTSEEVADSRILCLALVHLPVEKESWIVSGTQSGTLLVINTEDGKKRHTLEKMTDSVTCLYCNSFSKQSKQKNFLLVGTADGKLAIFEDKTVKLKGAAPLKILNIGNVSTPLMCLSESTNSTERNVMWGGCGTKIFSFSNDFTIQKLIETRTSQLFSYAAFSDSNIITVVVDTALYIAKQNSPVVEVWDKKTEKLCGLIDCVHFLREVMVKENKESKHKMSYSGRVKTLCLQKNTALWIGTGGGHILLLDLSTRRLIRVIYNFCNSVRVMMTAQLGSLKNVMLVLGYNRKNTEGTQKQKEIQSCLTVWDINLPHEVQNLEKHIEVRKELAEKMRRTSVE", "experiment": "LRRK2 G2019S Km ATP LanthaScreen assay", "type": "biochemical", "settings": "read-out: LRRK2 pIC50 (converted)"}
{"smiles": "CC1(N2CCC(c3cc4cc(NC(=O)C5CC56CCOCC6)ncc4cc3F)CC2)COCC1O", "note": "(single isomer, unassigned) [Ex-8.3, N-(7-fluoro-6-(1-(4-hydroxy-3-methyltetrahydrofuran-3-yl)piperidin-4-yl)isoquinolin-3-yl)-6-oxaspiro[2.5]octane-1-carboxamide]", "values": [{"measurement": "IC50", "value": 0.195, "unit": "nM"}]}
{"smiles": "CC1(N2CCC(c3cc4cc(NC(=O)C5CC5c5ccccn5)ncc4cc3F)CC2)COCC1O", "note": "(single isomer, unassigned) [Ex-8.4, N-(7-fluoro-6-(1-(4-hydroxy-3-methyltetrahydrofuran-3-yl)piperidin-4-yl)isoquinolin-3-yl)-2-(pyridin-2-yl)cyclopropane-1-carboxamide]", "values": [{"measurement": "IC50", "value": 0.0813, "unit": "nM"}]}
{"smiles": "O=C(Nc1cc2cc(C3CCN(C4COCC4O)CC3)c(Cl)cc2cn1)C1CC12CCOC2", "note": "(single isomer, unassigned) [Ex-8.5, N-(7-chloro-6-(1-(4-hydroxytetrahydrofuran-3-yl)piperidin-4-yl)isoquinolin-3-yl)-5-oxaspiro[2.4]heptane-1-carboxamide]", "values": [{"measurement": "IC50", "value": 0.1, "unit": "nM"}]}
{"smiles": "O=C(Nc1cc2cc(C3CCN(C4COC4)CC3)c(Cl)cc2cn1)C1CC12CC2", "note": "(single isomer, unassigned) [Ex-9.2]", "values": [{"measurement": "IC50", "value": 1.45, "unit": "nM"}]}
{"smiles": "CC1CC1C(=O)Nc1cc2cc(C3CCN(C4COC4)CC3)c(Cl)cc2cn1", "note": "(single isomer, unassigned) [Ex-9.3, N-(7-chloro-6-(1-(oxetan-3-yl)piperidin-4-yl)isoquinolin-3-yl)-2-methylcyclopropane-1-carboxamide]", "values": [{"measurement": "IC50", "value": 0.631, "unit": "nM"}]}
{"smiles": "CC1CC1C(=O)Nc1cc2cc(C3CCN(C4COC4)CC3)c(Cl)cc2cn1", "note": "(single isomer, unassigned) [Ex-9.4, N-(7-chloro-6-(1-(oxetan-3-yl)piperidin-4-yl)isoquinolin-3-yl)-2-methylcyclopropane-1-carboxamide]", "values": [{"measurement": "IC50", "value": 5.75, "unit": "nM"}]}
{"smiles": "CC1CC1C(=O)Nc1cc2cc(C3CCN(C4COC4)CC3)c(Cl)cc2cn1", "note": "(single isomer, unassigned) [Ex-9.5, N-(7-chloro-6-(1-(oxetan-3-yl)piperidin-4-yl)isoquinolin-3-yl)-2-methylcyclopropane-1-carboxamide]", "values": [{"measurement": "IC50", "value": 1.1, "unit": "nM"}]}
{"smiles": "CC1CC1C(=O)Nc1cc2cc(C3CCN(C4COC4)CC3)c(Cl)cc2cn1", "note": "(single isomer, unassigned) [Ex-9.6, N-(7-chloro-6-(1-(oxetan-3-yl)piperidin-4-yl)isoquinolin-3-yl)-2-methylcyclopropane-1-carboxamide]", "values": [{"measurement": "IC50", "value": 8.91, "unit": "nM"}]}
{"smiles": "O=C(Nc1cc2cc(C3CCN(C4COC4)CC3)c(Cl)cc2cn1)C1CC12CCOCC2", "note": "(single isomer, unassigned) [Ex-9.7, N-(7-chloro-6-(1-(oxetan-3-yl)piperidin-4-yl)isoquinolin-3-yl)-6-oxaspiro[2.5]octane-1-carboxamide]", "values": [{"measurement": "IC50", "value": 1.95, "unit": "nM"}]}
{"smiles": "O=C(Nc1cc2cc(C3CCN(C4COC4)CC3)c(Cl)cc2cn1)C1CC12CCOCC2", "note": "(single isomer, unassigned) [Ex-9.8, N-(7-chloro-6-(1-(oxetan-3-yl)piperidin-4-yl)isoquinolin-3-yl)-6-oxaspiro[2.5]octane-1-carboxamide]", "values": [{"measurement": "IC50", "value": 19.1, "unit": "nM"}]}
{"smiles": "CC1OCCC1N1CCC(c2cc3cc(NC(=O)C4CC4)ncc3cc2Cl)CC1", "note": "(single isomer, unassigned) [Ex-9.9, N-(7-chloro-6-(1-(2-methyltetrahydrofuran-3-yl)piperidin-4-yl)isoquinolin-3-yl)cyclopropanecarboxamide]", "values": [{"measurement": "IC50", "value": 5.62, "unit": "nM"}]}
{"smiles": "CC1OCCC1N1CCC(c2cc3cc(NC(=O)C4CC4)ncc3cc2Cl)CC1", "note": "(single isomer, unassigned) [Ex-9.10, N-(7-chloro-6-(1-(2-methyltetrahydrofuran-3-yl)piperidin-4-yl)isoquinolin-3-yl)cyclopropanecarboxamide]", "values": [{"measurement": "IC50", "value": 38.9, "unit": "nM"}]}
{"smiles": "COCC(C)c1cc2cc(NC(=O)C3CC34CCOCC4)ncc2cc1Cl", "note": "(single isomer, unassigned) [Ex-9.11, N-(7-chloro-6-(1-methoxypropan-2-yl)isoquinolin-3-yl)-6-oxaspiro[2.5]octane-1-carboxamide]", "values": [{"measurement": "IC50", "value": 44.7, "unit": "nM"}]}
